Patent US20250387361A1, “METHODS OF ADMINISTERING GAMMA-HYDROXYBUTYRATE COMPOSITIONS WITH DIVALPROEX SODIUM” (Flamel Ireland Limited, priority 2020, published 2025)
Where two headings read alike, the source gives them in different places.

Assays:
[1] = cited from earlier work
[2] = cited from earlier work; remark: listed apart in the source
plasma proteins = details: GHB concentrations 3 mcg/mL to 300 mcg/mL; cited from earlier work
[3] = in vivo
Description: (§1) The study included a sequential, three period design with a single-dose administration of 6 g FT218 on Day 1 (Period 1), once daily 1250 mg divalproex sodium ER administration from Day 2-11 (Period 2), and FT218 and divalproex sodium ER co-administration on Day 12 (Period 3). All administrations were performed in the evening, 2 hours after the completion of dinner.
(§2) To compare the effect of FT218 on DVP, the concentration versus time curves for a 1250 mg dose of DVP administered alone (Day 11) and co-administered with FT218 (Day 12) were plotted together.

[4] = in vivo; remark: listed apart in the source
Description: as §1, with “morning,” for “evening,”, “a morning meal.” for “dinner.”
as §2

rat [5] = details: 2-year study; cited from earlier work
mouse = details: 2-year study; cited from earlier work
patients = details: cited from earlier work; for incidence of depression: controlled trial titrated from 4.5 g, placebo 1.7%
[6] = cited from earlier work; remark: listed apart in the source
CYP1A2 = target: T1, CYP1A2 (Homo sapiens, UniProt P05177); details: up to 3 mM (378 mcg/mL); cited from earlier work
T1 sequence (P05177 1-516): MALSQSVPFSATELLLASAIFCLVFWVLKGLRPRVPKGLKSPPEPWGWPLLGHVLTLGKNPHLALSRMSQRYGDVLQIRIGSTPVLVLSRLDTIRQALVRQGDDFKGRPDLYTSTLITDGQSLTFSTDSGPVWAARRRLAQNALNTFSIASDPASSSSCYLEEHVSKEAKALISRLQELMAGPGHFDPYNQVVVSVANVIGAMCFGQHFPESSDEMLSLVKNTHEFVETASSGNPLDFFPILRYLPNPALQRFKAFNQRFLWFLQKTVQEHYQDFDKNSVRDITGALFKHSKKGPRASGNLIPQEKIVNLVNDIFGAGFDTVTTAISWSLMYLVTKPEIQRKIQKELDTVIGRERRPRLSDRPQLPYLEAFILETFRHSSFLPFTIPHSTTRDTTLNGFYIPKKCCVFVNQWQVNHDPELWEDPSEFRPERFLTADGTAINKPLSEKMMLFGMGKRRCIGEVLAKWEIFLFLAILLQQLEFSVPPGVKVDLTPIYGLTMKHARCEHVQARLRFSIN

CYP2C19 = CYP2C19 (Homo sapiens, UniProt P33261); details: up to 3 mM (378 mcg/mL); cited from earlier work
rats [7] = details: cited from earlier work
male and female rats = details: cited from earlier work
[8] = cited from earlier work; for apparent oral clearance: 25 mg/kg oral
pregnant rabbits = details: cited from earlier work
rats [9] = details: cited from earlier work; remark: listed apart in the source
mammalian cells = details: in vitro; cited from earlier work
bacterial gene mutation = details: in vitro; cited from earlier work
CYP2C9 = CYP2C9 (Homo sapiens, UniProt P11712); details: up to 3 mM (378 mcg/mL); cited from earlier work
CYP2E1 = CYP2E1 (Homo sapiens, UniProt P05181); details: up to 3 mM (378 mcg/mL); cited from earlier work
CYP2D6 = CYP2D6 (Homo sapiens, UniProt P10635); details: up to 3 mM (378 mcg/mL); cited from earlier work
CYP3A = details: up to 3 mM (378 mcg/mL); cited from earlier work
rats [10] = details: cited from earlier work; remark: listed apart in the source
pregnant rats = details: cited from earlier work
rat [11] = details: in vivo; cited from earlier work
[12] = 9 g per night, 50 patients with obstructive sleep apnea
[13] = elderly (65 years or older), another population
[14] = of 781 patients with narcolepsy
[15] = younger adults, another population
[16] = 6 g per day as two 3 g doses, ibuprofen 800 mg/dose four times per day

CYP2D6, sequence (P10635 whole entry): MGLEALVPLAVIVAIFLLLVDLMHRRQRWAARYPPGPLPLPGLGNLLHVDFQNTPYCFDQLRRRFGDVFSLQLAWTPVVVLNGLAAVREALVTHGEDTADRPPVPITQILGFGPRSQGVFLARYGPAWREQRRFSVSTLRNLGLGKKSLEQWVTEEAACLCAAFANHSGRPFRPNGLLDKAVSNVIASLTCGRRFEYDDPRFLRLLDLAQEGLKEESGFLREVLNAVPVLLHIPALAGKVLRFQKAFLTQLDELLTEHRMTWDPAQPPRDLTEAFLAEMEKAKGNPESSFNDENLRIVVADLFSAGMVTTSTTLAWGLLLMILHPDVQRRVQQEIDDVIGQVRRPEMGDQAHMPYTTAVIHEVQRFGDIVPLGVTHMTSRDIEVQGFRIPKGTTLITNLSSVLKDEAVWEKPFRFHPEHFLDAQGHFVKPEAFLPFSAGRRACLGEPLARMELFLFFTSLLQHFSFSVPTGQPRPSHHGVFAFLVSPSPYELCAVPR
CYP2C9, sequence (P11712 whole entry): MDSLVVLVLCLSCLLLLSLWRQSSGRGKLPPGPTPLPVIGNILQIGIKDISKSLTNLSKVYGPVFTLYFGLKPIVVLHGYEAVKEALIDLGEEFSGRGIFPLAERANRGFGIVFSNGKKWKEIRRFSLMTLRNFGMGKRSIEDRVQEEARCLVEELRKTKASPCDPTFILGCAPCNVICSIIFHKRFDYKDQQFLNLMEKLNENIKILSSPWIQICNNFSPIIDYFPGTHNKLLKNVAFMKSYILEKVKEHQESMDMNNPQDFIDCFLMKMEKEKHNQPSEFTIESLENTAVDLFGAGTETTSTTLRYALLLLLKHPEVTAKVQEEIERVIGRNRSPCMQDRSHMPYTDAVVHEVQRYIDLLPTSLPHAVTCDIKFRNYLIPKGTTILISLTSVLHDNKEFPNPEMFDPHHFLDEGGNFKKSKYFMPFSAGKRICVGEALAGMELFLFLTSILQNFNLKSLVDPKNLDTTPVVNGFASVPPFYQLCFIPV
CYP2C19, sequence (P33261 whole entry): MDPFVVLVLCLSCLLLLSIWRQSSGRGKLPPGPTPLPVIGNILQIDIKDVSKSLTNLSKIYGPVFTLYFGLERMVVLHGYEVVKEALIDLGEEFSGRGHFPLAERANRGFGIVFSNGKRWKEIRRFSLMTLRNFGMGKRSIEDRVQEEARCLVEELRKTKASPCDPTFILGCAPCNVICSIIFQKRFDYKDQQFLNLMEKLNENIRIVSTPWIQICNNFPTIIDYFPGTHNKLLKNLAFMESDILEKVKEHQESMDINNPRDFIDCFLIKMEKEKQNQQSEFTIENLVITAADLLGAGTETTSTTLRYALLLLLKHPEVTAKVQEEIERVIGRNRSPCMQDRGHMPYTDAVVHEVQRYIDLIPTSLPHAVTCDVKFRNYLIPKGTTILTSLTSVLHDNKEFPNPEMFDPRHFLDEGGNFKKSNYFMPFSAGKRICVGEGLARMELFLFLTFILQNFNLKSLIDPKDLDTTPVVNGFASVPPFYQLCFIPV
CYP2E1, sequence (P05181 whole entry): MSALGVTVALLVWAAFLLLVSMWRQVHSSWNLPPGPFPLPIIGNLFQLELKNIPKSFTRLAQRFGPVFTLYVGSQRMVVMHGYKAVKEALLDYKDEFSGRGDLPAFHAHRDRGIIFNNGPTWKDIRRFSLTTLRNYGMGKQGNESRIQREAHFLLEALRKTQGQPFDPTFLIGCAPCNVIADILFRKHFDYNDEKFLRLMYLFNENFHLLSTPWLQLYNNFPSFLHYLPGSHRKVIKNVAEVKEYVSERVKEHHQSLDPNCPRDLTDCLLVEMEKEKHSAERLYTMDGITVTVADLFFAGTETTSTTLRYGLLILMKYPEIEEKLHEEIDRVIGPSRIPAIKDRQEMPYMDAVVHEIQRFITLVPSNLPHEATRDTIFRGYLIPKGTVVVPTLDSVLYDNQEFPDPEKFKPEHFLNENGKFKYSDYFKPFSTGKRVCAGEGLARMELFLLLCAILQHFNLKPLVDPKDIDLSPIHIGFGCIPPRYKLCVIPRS

O=C(O)CCCO [GHB, gamma-hydroxybutyrate]
excretion in human milk ([1]; after oral administration of sodium oxybate): excreted in human milk
apparent volume of distribution ([1]; in vivo): 190 to 384 mL/kg
elimination half-life ([1]; in vivo): 30 to 60 min
fecal excretion ([1]; in vivo): negligible
placental transfer ([1]; intravenous administration to mothers): rapid
unchanged drug in human urine ([1]; within 6 to 8 hours after dosing): less than 5%
change in pharmacokinetics of GHB on alteration of gastric pH with omeprazole ([2]; in vivo): no significant change
bound to plasma proteins (plasma proteins): less than 1%

CCCC(CCC)C(=O)O [divalproex sodium ER, divalproex sodium]
decrease of valproic acid Cmax with FT218 ([3]; human): approximately 5%
valproic acid AUC0-24 T/R ratio [90% CI], Day 12 (with FT218) vs Day 11 (without) ([3]; human): 97.28 [94.59-100.04]
valproic acid Cmax T/R ratio [90% CI], Day 12 (with FT218) vs Day 11 (without) ([3]; human): 94.82 [91.03-98.76]
90% CIs of ratio of Cmax and AUC0-24 of valproic acid vs bioequivalence range (80.00%-125.00%) [3]: contained within the standard bioequivalence range
tmax for valproic acid, with vs without FT218 [3]: comparable
90% CIs of ratio of Cmax and AUC0-24 of valproic acid vs bioequivalence range (80.00%-125.00%) [4]: contained within the standard bioequivalence range

O=C1CCCO1 [gamma-butyrolactone]
carcinogenic activity (rat [5]): no clear evidence of carcinogenic activity
carcinogenic activity (mouse): no clear evidence of carcinogenic activity

O=C([O-])CCCO.[Na+] [immediate-release sodium oxybate, sodium 4-hydroxybutyrate]
incidence of depression (patients; 4.5 g per night): 1.5%
incidence of depression (patients; 6 g per night): 3.2%
patients with clinically significant oxygen desaturation (≤55%) (patients; 9 g per night, 50 patients with obstructive sleep apnea (three patients)): 6%
number of central apneas (patients; [12]): significant increase
severity of sleep-disordered breathing (patients; [12]): did not increase the severity of sleep-disordered breathing
patients experiencing confusion (patients; 9 g per night, controlled fixed-dose trial): 17%
incidence of depression (patients; 9 g per night): 3.6%
clinically significant worsening of respiratory function (patients; 40 patients with baseline apnea/hypopnea index 16 to 67 events per hour, 4.5 g to 9 g per night): None of the 40 patients
profound CNS depression (patients; 128 patients with narcolepsy): two subjects had profound CNS depression
CNS depression at recommended doses (patients; adult patients, clinical trials): obtundation and clinically significant respiratory depression occurred
sleepwalking with potential injury or significant injury (patients; clinical trial in patients with narcolepsy): Five instances
events of depression (patients; controlled trial, fixed doses 3 g, 6 g or 9 g per night, at the 3 g per night dose): a single event of depression
dose-related changes in oxygen saturation (patients; doses up to 9 g per night, 21 patients with narcolepsy): no dose-related changes in oxygen saturation
discontinuations of treatment due to adverse reactions (patients; [13]): 21%
frequency of headaches (patients; [13]): 39%
patients discontinuing because of depression (patients; four of 781 patients): < 1%
patients discontinuing due to sleepwalking (patients; human, in vivo): < 1%
patients who discontinued because of confusion (patients; human, in vivo): Less than 1%
patients reporting adverse reactions of depression (patients; [14]): 7%
patients who experienced confusion (patients; [14]): 3%
patients reporting sleepwalking (patients; of 781 patients with narcolepsy, controlled and long-term open-label studies): 6%
patients in whom anxiety occurred (patients; of 874 patients, another population): 5.8%
suicides and attempted suicides (patients; patients with narcolepsy (n=781)): two suicides and two attempted suicides
significant worsening of apnea/hypopnea index (patients; patients with preexisting moderate-to-severe sleep apnea): One of four patients
events of confusion (patients; trial titrated from 4.5 g per night, at the 9 g per night dose): a single event of confusion
discontinuations of treatment due to adverse reactions (patients; [15]): 19%
frequency of headaches (patients; [15]): 19%
systemic exposure to GHB on co-administration with diclofenac ([2]; 6 g per day as two 3 g doses four hours apart, diclofenac 50 mg/dose twice per day): no significant changes
effect of co-administration on pharmacokinetics of diclofenac ([2]; 6 g per day as two 3 g doses, diclofenac 50 mg/dose twice per day): did not appear to affect
effect of co-administration on pharmacokinetics of ibuprofen [2, 16]: did not affect
systemic exposure to GHB (plasma Cmax and AUC) on co-administration with ibuprofen [2, 16]: comparable systemic exposure
pharmacokinetic interactions with protriptyline hydrochloride, zolpidem tartrate, and modafinil ([2]; healthy adults): no pharmacokinetic interactions
pharmacokinetic or pharmacodynamic interactions with duloxetine HCl ([2]; healthy adults): no pharmacokinetic or clinically significant pharmacodynamic interactions
pharmacokinetic interactions with the alcohol dehydrogenase inhibitor fomepizole ([2]; in vivo): no pharmacokinetic interactions
pharmacokinetic characteristics of GHB in younger (48 to 64 years) vs older (65 to 75 years) adults ([6]; n=20, another studied population): consistent

O=C([O-])CCCO.[Na+] [sodium oxybate, sodium 4-hydroxybutyrate]
inhibition of CYP1A2 activity (CYP1A2): does not significantly inhibit
inhibition of CYP2C19 activity (CYP2C19): does not significantly inhibit
growth and maturation findings (rats [7]; at the highest dose tested (900 mg/kg/day)): Reduced body weight gain in males and females and delayed sexual maturation in males
mortality (rats [7]; oral 0, 100, 300, or 900 mg/kg/day, postnatal days 21 through 90): mortality was observed at the two highest doses tested
highest dose tested relative to MRHD on a mg/m^2 basis (male and female rats; 1,000 mg/kg/day): approximately equal to the MRHD
effects on fertility (male and female rats; oral 150, 350, or 1,000 mg/kg/day prior to and throughout mating, females through early gestation): no adverse effects on fertility
apparent oral clearance ([8]; Child's Class A cirrhotic patients): 4.5 mL/min/kg
apparent oral clearance ([8]; Child's Class C cirrhotic patients): 4.1 mL/min/kg
mean t1/2 ([8]; Class C patients): 59 min
apparent oral clearance ([8]; healthy adults): 9.1 mL/min/kg
AUC values in cirrhotic patients vs normal hepatic function ([8]; single oral dose of 25 mg/kg): doubled
highest dose tested relative to MRHD of 9 g per night (mg/m^2 basis) (pregnant rabbits; 1,200 mg/kg/day): ~3 times
developmental toxicity (pregnant rabbits; oral 300, 600, or 1,200 mg/kg/day throughout organogenesis): no clear evidence of developmental toxicity
plasma exposure (AUC) at the highest dose tested relative to humans at MRHD of 9 g per night (rats [9]; 1,000 mg/kg/day): 2 times
tumors (rats [9]; oral doses up to 1,000 mg/kg/day for 83 (males) or 104 (females) weeks): no increase in tumors
chromosomal aberration (mammalian cells): negative
bacterial gene mutation (bacterial gene mutation): negative
inhibition of CYP2C9 activity (CYP2C9): does not significantly inhibit
inhibition of CYP2E1 activity (CYP2E1): does not significantly inhibit
gender differences in pharmacokinetics of GHB ([6]; 18 female and 18 male healthy adults, 4.5 g oral dose): no gender differences were detected
inhibition of CYP2D6 activity (CYP2D6): does not significantly inhibit
inhibition of CYP3A activity (CYP3A): does not significantly inhibit
pre- and postnatal findings (rats [10]; oral 150, 350, or 1,000 mg/kg/day, at the highest dose tested): increased stillbirths and decreased offspring postnatal viability and body weight gain
no-effect dose for pre- and postnatal developmental toxicity relative to MRHD (mg/m^2 basis) (rats [10]; rat, in vivo): less than the MRHD
highest dose tested relative to MRHD of 9 g per night (mg/m^2 basis) (pregnant rats; 1,000 mg/kg/day): approximately 1 times
developmental toxicity (pregnant rats; oral 150, 350, or 1,000 mg/kg/day throughout organogenesis): no clear evidence of developmental toxicity
micronucleus (rat [11]): negative
